Experiments:
[1] = phenyl-p-quinone writhing assay (analgesic activity); assay type: in vivo, mice (Charles River, CD-1); settings: mice
Description: The compounds of this invention are useful as analgesic agents due to their ability to alleviate pain in mammals. The procedure employed to determine analgetic utility is a modification of the phenyl-p-quinone writhing assay in mice, a standard assay for analgetic activity [Proc. Soc. Exptl. Med., 95 729 (1957)]. Pursuant to the modified procedure phenyl-p-benzoquinone (Eastman, 12.5 mg) is dissolved in 5 ml of 95% ethanol and the solution is diluted to a total volume of 100 ml with distilled water. The solution is administered to the subject mice intraperitoneally at a dose of 10 ml per kg of body weight. A characteristic "writhe", an inward rotation of one or more feet with twisting and turning of the trunk, drawing in of the abdominal wall, lordosis and arching of the back, is produced.
A total of 28 male mice (Charles River, CD-1), weighing 18 to 30 grams, are employed for a time response. The subject animals receive food and water ad libitum. Test compounds are dissolved in distilled water, or suspended in distilled water containing one drop of a suitable surfactant, such as Tween-80.
Four groups of five animals (20 animals) are given the test compound subcutaneously (s.c.) or perorally (p.o.) at 15, 30, 45 and 60 minutes prior to administration of the phenyl-p-benzoquinone. A control group (2 animals per group) receive an equal volume of the vehicle. After the administration of the phenyl-p-benzoquinone, the mice are placed separately in one liter beakers, and after five minutes, are observed for ten minutes. The number of writhes for each animal is recorded. Thefollowing formula is used to compute the percent inhibition: [formula]
A dose range determination is run in the same manner as the time response except 10 animals per group are tested at the peak time of test drug activity. Fifty animals, 4 test drug groups, and a vehicle control are employed. Animals are dose and tested in a randomized manner. The time period with the greatest percent of inhibition is considered the peak time.

[2] = adjuvant-induced polyarthritis syndrome in rats assay (antiinflammatory activity); assay type: in vivo, rats (Charles River-Wistar Lewis); settings: Rattus norvegicus, po, 504 h, read-out: Non-Injected Paw ED50
Description: Several of the compounds of this invention have utility as antiinflammatory agents. Antiinflammatory activity was measured pursuant to the adjuvant-induced polyarthritis syndrome in rats assay by a procedure similar to that described by C. M. Pearson and F. D. Wood, Arthritis and Rheumatism, 2, 440 (1959).
Groups of 10 male Charles River-Wistar Lewis rats weighing 150 to 175 g were individually housed and maintained on a regular rat chow diet. Water was given ad libitum. The adjuvant was prepared by suspending 75 mg of Mycobacterium butyricum (Difco Laboratories, Detroit, Mich.) in 10 ml of white paraffin oil with continuous stirring for 2 hours at room temperature prior to administration. Test compounds are prepared by suspending the drug in water, adding one drop of Tween 80 per 10 ml of suspension, and homogenizing. The adjuvant suspension (0.1 ml) was injected into the footpad of the left hind paw of the rat. Test compound suspensions were administered orally (10 ml/kg) the day before adjuvant suspension injection and the administration was continued daily for 21 days. […] Injected and non-injected paw volumes were determined on the day the adjuvant suspension was given, and on subsequent days thereafter (usually days 5, 10, 18, and 21) by the method of C. […]
The percent inhibition of paw volume (injected and non-injected paw) were calculated by the following formula: [formula] […]

[3] = tetrabenazine induced ptosis assay (antidepressant activity); assay type: in vivo, mice (Charles River, CD-1); settings: mice; for ED50: Mus musculus, ip, dose for 50% inhibition of tetrabenazine-induced ptosis
Description: Several of the compounds of this invention are also useful as antidepressants by virtue of their ability to elicit an antidepressant response in mammals. Antidepressant activity is determined by the tetrabenazine induced ptosis assay in mice, [International Journal of Neuropharmacology, 8, 72 (1969], a standard assay for the determination of antidepressant activity. […] Tetrabenazine methanesulfonate (76.78% as the free base) is dissolved in distilled water and the concentration of the solution is adjusted so that the dose, administered intraperitoneally (i.p.) to the animals, is 40 mg of tetrabenazine base per kg of animal body weight. The test compound is administered intraperitoneally (i.p.) or orally to the subject animals, and the tetrabenazine solution is administered 30 minutes or 60 minutes, respectively, thereafter. Tetrabenazine solution and the solvent used to dissolve, or suspend, the test compounds are administered by the same route and at the same intervals as the test compounds to a control group. […] The vehicle-control group score is used as a determination of the validity of each test. The results are discarded and the test is repeated, if the control score is determined to be less than 17. […] A linear-regression analysis is used to estimate ED50 values and 95% confidence limits.

[4] = dark avoidance assay (memory enhancing activity); assay type: in vivo; settings: mice
Description: Pursuant to the dark avoidance assay, mice are tested for their ability to remember an unpleasant stimulus for a period of 24 hours. A mouse is placed in a chamber that contains a dark compartment; a strong incandescent light drives it to the dark compartment, where an electric shock is administered through metal plates on the floor. The animal is removed from the testing apparatus and tested again, 24 hours later, for the ability to remember the electric shock.

CNC(=O)N1Cc2cccn2N(C)c2ccncc21.O=C(O)/C=C\C(=O)O [10,11-Dihydro-5-methyl-11-methylcarbamyl-5H-pyrido[3,4-f]pyrrolo[1,2-b][1,2,5]triazepine maleate]
% Inhibition of Writhing at a Screening Dose of 20 mg/kg, s.c. [1]: 44%

CN1CCC(C2Nc3cnccc3N(C)n3cccc32)CC1 (centres unmarked) [10,11-Dihydro-5-methyl-10-[(1-methyl)piperidin-4-yl]-5H-pyrido[3,4-f]pyrrolo[1,2-b][1,2,5]triazepine]
ED50 ([2]; rats, p.o., daily for 21 days, dose for 50% inhibition of adjuvant induced inflammation, non-injected paw): 53.7 mg/kg
ED50 [3]: 15.7 mg/kg

CN(C)CCC=C1c2ccccc2CCc2ccccc21 [amitryptyline, reference compound]
ED50 [3]: 1.5 mg/kg

CC(C)=CCN1CCC2(C)c3cc(O)ccc3CC1C2C (centres unmarked) [Pentazocine, reference compound]
% Inhibition of Writhing ([1]; at a dose of 1.3 mg/kg s.c. (footnote 2)): 50%

CN1c2ccncc2NC(c2ccccc2)c2cccn21 (centres unmarked) [10,11-dihydro-5-methyl-10-phenyl-5H-pyrido[3,4-f]pyrrolo[1,2-b][1,2,5]triazepine]
% Inhibition of Writhing at a Screening Dose of 20 mg/kg, s.c. [1]: 47%

CN1c2ccncc2NCc2cccn21 [10,11-Dihydro-5-methyl-5H-pyrido[3,4-f]pyrrolo[1,2-b][1,2,5]triazepine]
% Inhibition of Writhing ([1]; at a dose of 12.6 mg/kg s.c. (footnote 1)): 50%

CC(=O)Oc1ccccc1C(=O)O [Aspirin, reference compound]
ED50 [2]: 110 mg/kg

CNC(=O)Oc1ccc2c(c1)[C@]1(C)CCN(C)[C@@H]1N2C [physostigmine, reference compound]
% of Animals With Scopolamine Induced Memory Deficit Reversed ([4]; 0.31 mg/kg s.c.): 20%

CN1c2ccncc2N(C=O)Cc2cccn21.O=C(O)/C=C\C(=O)O [11-Formyl-10,11-dihydro-5-methyl-5H-pyrido[3,4-f]pyrrolo[1,2-b][1,2,5]triazepine maleate]
% Inhibition of Writhing at a Screening Dose of 20 mg/kg, s.c. [1]: 47%

CC1Nc2cnccc2N(C)n2cccc21 (centres unmarked) [10,11-Dihydro-5,10-dimethyl-5H-pyrido[3,4-f]pyrrolo[1,2-b][1,2,5]triazepine]
inhibition of ptosis ([3]; at a dose of 10 mg/kg i.p.): 47%
% of Animals With Scopolamine Induced Memory Deficit Reversed ([4]; 2.5 mg/kg s.c.): 33%

CN(C)CCCC1Nc2cnccc2N(C)n2cccc21 (centres unmarked) [10,11-Dihydro-5-methyl-10-[3-(N,N-dimethylamino)propyl]-5H-pyrido[3,4-f]pyrrolo[1,2-b][1,2,5]triazepine]
% Inhibition of Writhing at a Screening Dose of 20 mg/kg, s.c. [1]: 57%
% of Animals With Scopolamine Induced Memory Deficit Reversed ([4]; 1.25 mg/kg s.c.): 27%

— patent US4879382A, “Pyrido(3,4-f)pyrrolo(1,2-b)(1,2,5)triazepines” (Hoechst-Roussel Pharmaceuticals, Inc., priority 1988, dated 1989)
